Five compounds from US20240200091A1, “USE OF PROTOPORPHYRINOGEN OXIDASE” (BEIJING DABEINONG BIOTECHNOLOGY CO., LTD., priority 2021, published 2024) can be followed below.

Common to all, as to type: in vivo
Data set [1] deals with Arabidopsis thaliana T1 plants. The data set is described as follows: oxyfluorfen tolerance of transgenic Arabidopsis thaliana T1 plants (spray, grade of pesticide damage). The conditions noted are these: for The grade of pesticide damage/plant: grade 0 / The grade of pesticide damage/plant: grade 1 / The grade of pesticide damage/plant: grade 2 / The grade of pesticide damage/plant: grade 3: 7 DAT, number of plants of 24 per genotype, grades. An excerpt: (§1) The transformed Arabidopsis thaliana T1 plants were initially selected using glufosinate herbicide. The Arabidopsis thaliana T1 plants (PPO1A) into which the PPO1A nucleotide sequence was introduced, the Arabidopsis thaliana T1 plants (PPO2A) into which the PPO2A nucleotide sequence was introduced, the Arabidopsis thaliana T1 plants (PPO3A) into which the PPO3A nucleotide sequence was introduced, the Arabidopsis thaliana T1 plants (PPO4A) into which the PPO4A nucleotide sequence was introduced, the Arabidopsis thaliana T1 plants (PPO5A) into which the PPO5A nucleotide sequence was introduced, the Arabidopsis thaliana T1 plants (PPO6A) into which the PPO6A nucleotide sequence was introduced, the Arabidopsis thaliana T1 plants (PPO7A) into which the PPO7A nucleotide sequence was introduced, the Arabidopsis thaliana T1 plants (PPO8A) into which the PPO8A nucleotide sequence was introduced, the Arabidopsis thaliana T1 plants (PPO9A) into which the PPO9A nucleotide sequence was introduced, the Arabidopsis thaliana T1 plants (PPO10A) into which the […] nucleotide sequence was introduced, the Arabidopsis thaliana T1 plants (PPO11A) into which the PPO11A nucleotide sequence was introduced, the Arabidopsis thaliana T1 plants (PPO12A) into which the PPO12A nucleotide sequence was introduced, the Arabidopsis thaliana T1 plants (PPO13A) into which the PPO13A nucleotide sequence was introduced, the Arabidopsis thaliana T1 plants (PPO14A) into which the PPO14A nucleotide sequence was introduced, the Arabidopsis thaliana T1 plants (PPO-ATA) into which the PPO-ATA nucleotide sequence was introduced, the Arabidopsis thaliana T1 plants (PPO-APA) into which the PPO-APA nucleotide sequence was introduced, the Arabidopsis thaliana T1 plants (control vector) into which the control vector was introduced, and the wild-type Arabidopsis thaliana plants (CK) (with 24 plants being included in each genotype) (18 days after sowing) were sprayed with oxyfluorfen at three concentrations (180 g ai/ha (one-fold field concentration, 1×), 720 g ai/ha (four-fold field concentration, 4×), and 0 g ai/ha (water, 0×)), saflufenacil at three concentrations (25 g ai/ha (one-fold field concentration, 1×), 100 g ai/ha (four-fold field concentration, 4×), and 0 g ai/ha (water, 0×)), flumioxazin at three concentrations (60 g ai/ha (one-fold field concentration, 1×), 240 g ai/ha (four-fold field concentration, 4×), and 0 g ai/ha (water, 0×), and sulfentrazone at three concentrations (450 g ai/ha (one-fold field concentration, 1×), 900 g ai/ha (two-fold field concentration, 2×), and 0 g ai/ha (water, 0×) to determine the tolerance of Arabidopsis thaliana to the herbicides. After 7 days of spraying (7 DAT), the damage level of each plant caused by the herbicide was evaluated according to the average of the damage levels (%) of plants (the average of the damage levels (%) of plants=the injured leaf area/the total leaf area×[…]), i.e., the grade of pesticide damage: grade 0 means that the growth status of plants is essentially consistent with those sprayed with the blank solvent (water); grade 1 means that the average of the damage levels of plants is less than 10%; grade 2 means that the average of the damage levels of plants is greater than […]; and grade 3 means that the average of the damage levels of plants is 100%. The plants having a growth status falling within grades 0 and 1 are classified as highly resistant plants; those having a growth status falling within grade 2 are classified as poorly resistant plants; and those having a growth status falling within grade 3 are classified as non-resistant plants.

Data set [2] deals with Arabidopsis thaliana T1 plants. The data set is described as follows: saflufenacil tolerance of transgenic Arabidopsis thaliana T1 plants (spray, grade of pesticide damage). The conditions noted are these: for The grade of pesticide damage/plant: grade 0 / The grade of pesticide damage/plant: grade 1 / The grade of pesticide damage/plant: grade 2 / The grade of pesticide damage/plant: grade 3: 7 DAT, number of plants of 24 per genotype, grades.
Source text: as §1

Data set [3] concerns Arabidopsis thaliana T1 plants. The data set is described as follows: flumioxazin tolerance of transgenic Arabidopsis thaliana T1 plants (spray, grade of pesticide damage). Particulars: for The grade of pesticide damage/plant: grade 0 / The grade of pesticide damage/plant: grade 1 / The grade of pesticide damage/plant: grade 2 / The grade of pesticide damage/plant: grade 3: 7 DAT, number of plants of 24 per genotype, grades.
Source text: as §1

For data set [4], the system named is Arabidopsis thaliana T1 plants. The data set is described as follows: sulfentrazone tolerance of transgenic Arabidopsis thaliana T1 plants (spray, grade of pesticide damage). Particulars: for The grade of pesticide: grade 0 / The grade of pesticide: grade 1 / The grade of pesticide: grade 2 / The grade of pesticide: grade 3: 7 DAT, number of plants of 24 per genotype, grades.
Source text: as §1

Regarding “PPO-ATA: nucleotide sequence encoding Arabidopsis protoporphyrinogen oxidase PPO-AT (SEQ ID NO:46), Arabidopsis thaliana/soybean common codon usage bias [reference compound]”, the “The grade of pesticide damage/plant: grade 0” value in data set [1] (oxyfluorfen 180 g ai/ha (1×)), in data set [1] (oxyfluorfen 720 g ai/ha (4×)), in data set [2] (saflufenacil 25 g ai/ha (1×)), in data set [2] (saflufenacil 100 g ai/ha (4×)), in data set [3] (flumioxazin 60 g ai/ha (1×)) and in data set [3] (flumioxazin 240 g ai/ha (4×)) was 0 plant throughout. In addition, the “The grade of pesticide damage/plant: grade 1” value in data set [1] (oxyfluorfen 180 g ai/ha (1×)), in data set [1] (oxyfluorfen 720 g ai/ha (4×)), in data set [2] (saflufenacil 25 g ai/ha (1×)), in data set [2] (saflufenacil 100 g ai/ha (4×)), in data set [3] (flumioxazin 60 g ai/ha (1×)) and in data set [3] (flumioxazin 240 g ai/ha (4×)) was 0 plant each time. The “The grade of pesticide damage/plant: grade 2” value in data set [1] (oxyfluorfen 180 g ai/ha (1×)) is listed as 8 plant; in data set [1] (oxyfluorfen 720 g ai/ha (4×)), 0 plant; in data set [2] (saflufenacil 25 g ai/ha (1×)), 0 plant; in data set [2] (saflufenacil 100 g ai/ha (4×)), 0 plant; in data set [3] (flumioxazin 60 g ai/ha (1×)) it was 2 plant; in data set [3] (flumioxazin 240 g ai/ha (4×)), 0 plant. In addition, the “The grade of pesticide damage/plant: grade 3” value is on record as 16 plant in data set [1] (oxyfluorfen 180 g ai/ha (1×)); 24 plant in data set [1] (oxyfluorfen 720 g ai/ha (4×)); 24 plant in data set [2] (saflufenacil 25 g ai/ha (1×)); 24 plant in data set [2] (saflufenacil 100 g ai/ha (4×)); 22 plant in data set [3] (flumioxazin 60 g ai/ha (1×)); 24 plant in data set [3] (flumioxazin 240 g ai/ha (4×)). For the same compound, the tolerance to oxyfluorfen result in data set [1] (oxyfluorfen at different concentrations (180 and 720 g ai/ha), compared with the control vector and CK) is reported as “basically no tolerance”. Besides, the tolerance to saflufenacil entry in data set [2] (saflufenacil at four-fold field concentration (100 g ai/ha)) and in data set [2] (saflufenacil at one-fold field concentration (25 g ai/ha)) was “no tolerance” each time. Further, the tolerance to flumioxazin result in data set [3] (flumioxazin at different concentrations (60 and 240 g ai/ha)) is listed as “basically no tolerance”. Besides, the “The grade of pesticide: grade 0” value in data set [4] (sulfentrazone 450 g ai/ha (1×)) and in data set [4] (sulfentrazone 900 g ai/ha (2×)) was 0 each time. Moreover, the “The grade of pesticide: grade 1” value in data set [4] (sulfentrazone 450 g ai/ha (1×)) and in data set [4] (sulfentrazone 900 g ai/ha (2×)) was 0 in each case. Also, the “The grade of pesticide: grade 2” value in data set [4] (sulfentrazone 450 g ai/ha (1×)) and in data set [4] (sulfentrazone 900 g ai/ha (2×)) was 0 each time. In addition, the “The grade of pesticide: grade 3” value in data set [4] (sulfentrazone 450 g ai/ha (1×)) and in data set [4] (sulfentrazone 900 g ai/ha (2×)) was 24 in each case. Also, the tolerance to sulfentrazone result in data set [4] (sulfentrazone at different concentrations (450 and 900 g ai/ha)) is on record as “no tolerance”.
Regarding `CC(C)N(C)S(=O)(=O)NC(=O)c1cc(-n2c(=O)cc(C(F)(F)F)n(C)c2=O)c(F)cc1Cl` [saflufenacil, N′-[2-chloro-4-fluoro-5-(3-methyl-2,6-dioxo-4-(trifluoromethyl)-3,6-dihydro-1(2H)-pyrimidine)benzoyl]-N-isopropyl-N-methylsulfamide, reference compound], the “effective dose distinguishing sensitive plants from plants having an average level of resistance” value in data set [2] (for Arabidopsis thaliana, saflufenacil herbicide) is 25 g ai/ha.
Regarding `Cc1nn(-c2cc(NS(C)(=O)=O)c(Cl)cc2Cl)c(=O)n1C(F)F` [sulfentrazone, N-(2,4-dichloro-5-(4-difluoromethyl-4,5-dihydro-3-methyl-5-oxo-1H-1,2,4-triazole-1-yl)phenyl)methanesulfonamide, reference compound], the “effective dose distinguishing sensitive plants from plants having an average level of resistance” value in data set [4] (for Arabidopsis thaliana, sulfentrazone herbicide) amounted to 450 g ai/ha.
As to `CCOc1cc(Oc2ccc(C(F)(F)F)cc2Cl)ccc1[N+](=O)[O-]` [oxyfluorfen, 2-chloro-1-(3-ethoxy-4-nitrophenoxy)-4-trifluoromethylbenzene, reference compound], the “effective dose distinguishing sensitive plants from plants having an average level of resistance” value in data set [1] (for Arabidopsis thaliana, oxyfluorfen herbicide) is on record as 180 g ai/ha.
Take `C#CCN1C(=O)COc2cc(F)c(N3C(=O)C4=C(CCCC4)C3=O)cc21` [flumioxazin, 2-[7-fluoro-3,4-dihydro-3-oxo-4-(2-propynyl)-2H-1,4-benzoxazin-6-yl]-4,5,6,7-tetrahydro-1H-isoindole-1,3(2H)-dione, reference compound]: the “effective dose distinguishing sensitive plants from plants having an average level of resistance” value in data set [3] (for Arabidopsis thaliana, flumioxazin herbicide) is 60 g ai/ha.
